Test results from patent US8138343B2, “Crystalline polymorph of 7-ethyl-10-hydroxycamptothecin” (ScinoPharm Taiwan Ltd., priority 2007, dated 2012).

Assay: Storage stability of crystalline SN38
Type: physicochemical
Conditions: 25° C. and 70% relative humidity for one year

## CCc1c2c(nc3ccc(O)cc13)-c1cc3c(c(=O)n1C2)COC(=O)C3(O)CC (stereo not shown) [crystalline SN38, 7-ethyl-10-hydroxycamptothecin]
  stability on storage: stable
